Reference: patent publication US20210236513A1, “NOVEL USES” (ZARODEX THERAPEUTICS LIMITED, priority 2018, published 2021)

Legend:
[1] = system: Immunoglobulin levels (IgG, IgA and IgM); assay: Serum immunoglobulin levels by nephelometry, cross-sectional case control study of clozapine-treated vs clozapine-naive patients; format: in vivo, human
[2] = system: specific antibody levels against Haemophilus B (Hib), Tetanus and Pneumococcus; parameters: species or system human; conditions: in vivo
[3] = Infection questionnaire, antibiotic courses and hospital admissions, same case control study; format: in vivo, human
serum IgG, IgA and IgM = assay: Serum immunoglobulins in clozapine patients referred to Immunology clinic; format: in vivo, human
[4] = system: IgG to Haemophilus influenza B, Pneumococcus and Tetanus; conditions: human, in vivo
[5] = system: circulating total IgG, IgA, IgM and pneumococcal-specific IgG; assay: Second observational study (interim), circulating immunoglobulins; format: in vivo, human; conditions: interim analysis
[6] = system: circulating B cell subsets; assay: Second observational study (interim), peripheral blood B cell subsets by FACS; format: in vivo, human; conditions: interim analysis
[7] = Wild type mouse study, body weight; format: in vivo, C57BL/6 mice; conditions: 5 mg/kg and 10 mg/kg IP once daily; maximal by 3 days, recovering fully to baseline by day 9
[8] = system: collagen-induced arthritis; assay: Collagen-induced arthritis (CIA) model, onset, clinical score and paw-swelling; format: in vivo, DBA/1 mice
Description: Adult (age 13-15 weeks) DBA/1 male mice were purchased from Envigo (Horst, Netherlands). […] 1. […] All experiments were approved by the Clinical Medicine Animal Welfare and Ethical Review Body (AWERB) and by the UK Home Office. DBA/1 mice were immunised with bovine type II collagen in CFA and monitored daily for onset of arthritis. […] Controls received vehicle (saline) alone. Treatment of mice commenced in one experiment on day 1 after immunisation and in a second experiment on day 15 after immunisation. Clinical scores and paw-swelling were monitored for 10 days following onset of arthritis. A clinical scoring system was used as follows. Arthritis severity was scored by an experienced, non-blinded investigator as follows: 0=normal, 1=slight swelling and/or erythema, 2=pronounced swelling, 3=ankylosis. […] Data were analyzed by one-way ANOVA with Tukey's or Dunnett's multiple comparison test or two-way ANOVA with Tukey's multiple comparison test as appropriate. All calculations were made using GraphPad Prism software.

[9] = system: B220+ B cells, plasma cells, germinal centre B cells; assay: CIA model, B cell subsets in spleen and lymph nodes by FACS; format: in vivo, DBA/1 mice
[10] = system: anti-type II collagen IgG1 and IgG2a; assay: CIA model, anti-collagen immunoglobulin by ELISA; format: in vivo, DBA/1 mice
[11] = system: T follicular helper cells (CD4+ PD1+ CXCR5+); assay: CIA model, T follicular helper cells by FACS; format: in vivo, DBA/1 mice
[12] = system: class switched memory B cells, plasmablasts and other B cell subsets
[13] = system: total peripheral blood B-cells from healthy donors differentiating to plasmablasts and plasma cells
[14] = system: treatment-resistant schizophrenia; conditions: schizophrenic patients; cited from earlier work
[15] = system: serum/plasma IgG, IgA, IgM; conditions: cited from earlier work
[16] = Michel et al., 2015; cited from earlier work
[17] = system: splenic B cell and T cell populations; assay: Wild type mouse study, spleen immunophenotyping by flow cytometry
[18] = system: bone marrow B cell subsets; assay: Wild type mouse study, bone marrow B cell immunophenotyping by flow cytometry
[19] = clozapine-treated patients post-exclusion, n=94
[20] = number of admissions, clozapine-treated patients
[21] = FIG. 3B, referred clozapine patients
[22] = outpatients on clozapine for at least five years (Lozano et al., 2016)
[23] = six weeks treatment (Hinze-Selch et al., 1998)
[24] = 10 mg/kg clozapine IP, 21 days, FIG. 18

CN1CCN(C2=Nc3cc(Cl)ccc3Nc3ccccc32)CC1 [Clozapine, clozapine]
Concentrations of IgG, IgA and IgM vs clozapine-naive control group ([1]; human, in vivo): significantly reduced
Effect of duration of clozapine therapy on serum IgG ([1]; p 0.014, FIG. 2, not observed in clozapine-naive patients): associated with lower serum IgG levels
IgM-Pneumococcus, mean (SEM in the line below) [2]: 58.5 U/L
Admitted to hospital with infection ([3]; clozapine group vs 0.06 in controls): 0.12 per patient year
Antibiotic courses per year: 1-5 courses, percentage of patients [3, 19]: 33.0%
Antibiotic courses per year: >5 courses, percentage of patients [3, 19]: 5.3%
Antibiotic courses per year: nil courses, percentage of patients [3, 19]: 61.7%
Antibiotic courses per year: >5 courses, percentage of patients ([3]; clozapine-treated patients post-exclusion, n=94, listed as clozapine): 5.3%
Admission frequency in 12-month period, all cause [3, 20]: 21
Admission frequency in 12-month period, infection-related [3, 20]: 15
Serum IgA after clozapine was stopped (serum IgG, IgA and IgM; one patient, after 24 months): 0.29 g/L
Serum IgM after clozapine was stopped (serum IgG, IgA and IgM; one patient, after 24 months): 0.49 g/L
Mean IgA (serum IgG, IgA and IgM; referred clozapine patients): 0.34 g/L
Mean IgG (serum IgG, IgA and IgM; referred clozapine patients): 3.6 g/L
Mean IgM (serum IgG, IgA and IgM; referred clozapine patients): 0.21 g/L
Individuals failing to develop an IgG response above ≥50 mg/L [4]: 73%
Individuals failing to mount a Haemophilus-IgG response ≥1 mcg/ml [4]: 42%
Patients with IgG to Haemophilus influenza B (HiB) <1 mcg/ml at initial assessment [4]: 75%
Patients with Pneumococcus-IgG <50 mg/L at initial assessment [4]: 94%
Patients with Tetanus-IgG <0.1 IU/mL at initial assessment [4]: 38%
Vaccine response of individual referred patient [4]: Failure to responds to
Levels of circulating total IgG, IgA and IgM vs clozapine naive ([5]; FIG. 6A-C): Significantly reduced
IgG antibodies against pneumococcus vs clozapine naive ([5]; FIG. 7): trend to lower
Overall CD19+ B cell numbers vs clozapine naive ([6]; FIG. 8A-B): not significantly different
Naive (CD19+ CD27-) B cells as a proportion of total CD19+ B cells ([6]; FIG. 9A-C): Small increase
Overall memory B cell pool ([6]; FIG. 10A-C): without perturbation
IgMhi IgDlo memory B cell subpopulation ([6]; FIG. 12A-C): without perturbation
Circulating levels of transitional B cells ([6]; FIG. 13A-C): No significant difference
Circulating levels of marginal zone B cells ([6]; FIG. 14A-C): No significant difference
Class-switched memory B cells (CD27+ IgM- IgD- as % B) ([6]; P=0.06 vs control, FIG. 11A-C): Strong trends to a specific reduction
Levels of plasmablasts ([6]; P=0.07 vs control clozapine naive, FIG. 15A-C): Strong trends to reduction
Body weight [7]: transient fall in body weight
Swelling of the first affected paw ([8]; 10 mg/kg clozapine from day 1, FIG. 27): reduced swelling of the first affected paw
Arthritis onset ([8]; both doses of clozapine (5, 10 mg/kg) from day 1): extremely effective in delaying arthritis onset
Overall clinical score ([8]; both doses, administered on day 1, FIG. 27): reduced overall clinical score
Onset of arthritis post-immunisation ([8]; clozapine 5 or 10 mg/kg IP daily from day 1 or day 15, FIGS. 25 and 26): significantly effective in delaying the onset
Incidence of CIA ([8]; most apparent when dosed just after CII immunisation, FIG. 26): reduces the incidence
Total number of affected paws compared to vehicle control ([8]; significant with dosing at D1, FIG. 28): reduced the total number of affected paws
Proportion of plasma cells in spleen ([9]; 10 mg/kg clozapine given on day 1, FIG. 30): significant reduction
Proportion of B220+ B cells in spleen ([9]; 10 mg/kg from day 1): significantly reduced
Level of GL7 expression on follicular B cells in lymph node ([9]; all clozapine treatment groups vs vehicle, FIG. 32): significantly decreased
Percentage of B220+ B cells in lymph nodes ([9]; all doses and time points (5 or 10 mg/kg from day 1 or day 15), FIG. 29): significantly lower percentage
Lymph node follicular B cells (B220+IgD-Fas+GL7hi) ([9]; all doses/both time points, FIG. 31): Strikingly significant reductions
Reduction of anti-type II collagen IgG1 ([10]; 10 mg/kg from day 15, FIG. 33): reaching statistical significance
Serum anti-type II collagen IgG2a ([10]; 5 or 10 mg/kg from day 1 or day 15, single time point, FIG. 33): no significant impact
Levels of anti-type II collagen IgG1 ([10]; across all doses tested, FIG. 33): nominal reductions
Proportions of CD4+PD1+CXCR5+ T follicular helper cells in lymph node or spleen ([11]; 5 or 10 mg/kg from day 1 or day 15, FIG. 34): did not significantly affect
Expression of PD-1 in lymph node T follicular helper cells (MFI) ([11]; all doses and time points, FIG. 35): Reduced expression of PD-1
CXCR5 expression on T follicular helper cells (MFI) ([11]; dosed from day 1, lymph node and spleen, FIG. 36): significant reductions
Expression of CCR7 on germinal centre resident T follicular helper cells ([11]; lymph node and spleen, FIG. 37): reduction in expression of CCR7
CSMB vs healthy controls [12, 21]: significant reduction
Marginal zone B cell numbers vs healthy control [12, 21]: no significant difference
Total B cell numbers vs CVID and healthy controls [12, 21]: similar
Overall lymphopenia or B cell lymphopenia ([12]; human, in vivo): no severe overall lymphopenia or B cell lymphopenia
Direct toxicity to differentiating B-cells [13]: no direct toxicity effect
Previously treatment refractive patients in whom effective [14]: approximately 60%
IgA, IgG, absolute neutrophil count and white blood cell count vs control group [15, 22]: no differences were found
Mean plasma levels of IgM vs control group [15, 22]: overall decrease
IgA or IgM concentrations, pattern of autoantibodies [15, 23]: no significant effect
Serum concentrations of IgG [15, 23]: significant increases
CNS penetration [16]: high levels of CNS penetration
Activated T cells (B220+TCR-β+) in spleen compared to control ([17]; FIG. 21): reduced in dose-dependent fashion
Other splenic cell populations (B220-TCR-β-) ([17]; FIG. 21): No effect
Percentage of splenic T cells (B220-TCR-β+) ([17]; FIG. 21): reciprocal increase
Splenic follicular B cell subset ([17]; FIG. 22): no specific reductions
Splenic marginal zone B cell subset ([17]; FIG. 22): no specific reductions
Proportion of T2 B cells in the spleen ([17]; across all doses of clozapine, FIG. 22): small increase
Percentage of splenic B cells (B220+TCR-β-) of total live splenocytes ([17]; clozapine at 5 mg/kg and 10 mg/kg, FIG. 21): significantly lower percentage
Proportion of transitional stage 1 (T1) B cells in the spleen ([17]; including at the 2.5 mg/kg dose, FIG. 22): mildly reduced proportion
Germinal centre cells in the spleen versus control or haloperidol ([17]; steady state, FIG. 22): no differences observed
Pro-B cell fraction in bone marrow [18, 24]: without any change
Proportion of pre-pro B cells in bone marrow [18, 24]: significant increase
Percentage of immature B cells in bone marrow ([18]; FIG. 19): reduction
Overall B cells in the bone marrow ([18]; any dose of clozapine (2.5, 5, 10 mg/kg IP, 21 days), FIG. 18): No overall reduction
Pre-B cells in bone marrow ([18]; dose-dependent, significant vs control even at 2.5 mg/kg, FIG. 19): reduction
Percentage of proliferating pre-B cells in bone marrow ([18]; reaching significance for the 5 mg/kg dose, FIG. 19): diminished
